Usually IC50 stands for the midpoint of a concentration-inhibition curve. One may read the viability, T/C as the ratio of treated to control.

Values joined by “and” are separate entries in the source; they are usually repeats but may differ in a detail not shown here. Equal entries are not always repeated.

This is an account of results in PubChem BioAssay AID1963428 (Molecular Pharmacology Branch, DTP, NCI, 2024).

For the experiment, the system named is 171881-019-R-J1-PDC complex spheroid growth, % test/control. As to the kind of experiment: Anticancer human tumor 171881-019-R-J1-PDC patient-derived invasive breast carcinoma cell line growth inhibition [Asc]. The following applies: for viability, T/C: stronger effect = lower value. An outline of the steps:
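Tumor cells were grown as multicellular spheroids with stromal HUVEC and mesenchymal stem cells and treated singly or in combination. Concentrations fell in half-log steps from the clinical Cmax, or from 10 microM where none was known.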

[1] abbreviates: curve of first compound, second compound 0.03 µM.
Where [2] appears, read: curve of first compound, second compound 0.0949 µM.
[3] abbreviates: curve of first compound, second compound 0.3 µM.
[4] abbreviates: curve of first compound, second compound 0.949 µM.
Setting [5] is: curve of first compound, second compound 3 µM.
Where [6] appears, read: second compound 0.03 µM, first compound 0.0316 µM.
Where [7] appears, read: second compound 0.03 µM, first compound 0.1 µM.
Where [8] appears, read: second compound 0.03 µM, first compound 0.316 µM.
[9] abbreviates: second compound 0.03 µM, first compound 1 µM.
[10] abbreviates: second compound 0.03 µM, first compound 3.16 µM.
Setting [11] is: second compound 0.03 µM, first compound 10 µM.
Setting [12] is: second compound 0.0949 µM, first compound 0.0316 µM.
Setting [13] is: second compound 0.0949 µM, first compound 0.1 µM.
The mark [14] stands for this setting: second compound 0.0949 µM, first compound 0.316 µM.
[15] abbreviates: second compound 0.0949 µM, first compound 1 µM.
[16] abbreviates: second compound 0.0949 µM, first compound 3.16 µM.
[17] abbreviates: second compound 0.0949 µM, first compound 10 µM.
[18] abbreviates: second compound 0.3 µM, first compound 0.0316 µM.
Setting [19] is: second compound 0.3 µM, first compound 0.1 µM.
Where [20] appears, read: second compound 0.3 µM, first compound 0.316 µM.
Setting [21] is: second compound 0.3 µM, first compound 1 µM.
The mark [22] stands for this setting: second compound 0.3 µM, first compound 3.16 µM.
Where [23] appears, read: second compound 0.3 µM, first compound 10 µM.
Where [24] appears, read: second compound 0.949 µM, first compound 0.0316 µM.
The mark [25] stands for this setting: second compound 0.949 µM, first compound 0.1 µM.
[26] abbreviates: second compound 0.949 µM, first compound 0.316 µM.
The mark [27] stands for this setting: second compound 0.949 µM, first compound 1 µM.
The mark [28] stands for this setting: second compound 0.949 µM, first compound 3.16 µM.
Where [29] appears, read: second compound 0.949 µM, first compound 10 µM.
Setting [30] is: second compound 3 µM, first compound 0.0316 µM.
The mark [31] stands for this setting: second compound 3 µM, first compound 0.1 µM.
Where [32] appears, read: second compound 3 µM, first compound 0.316 µM.
Where [33] appears, read: second compound 3 µM, first compound 1 µM.
Where [34] appears, read: second compound 3 µM, first compound 3.16 µM.
Setting [35] is: second compound 3 µM, first compound 10 µM.
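For viability, T/C in this document: spheroids exposed to compounds for 7 days.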

For the molecule `C=C(F)C(=O)N1CCN(c2nc(OCC3CCCN3C)nc3c2CCN(c2cccc4cccc(Cl)c24)C3)CC1CC#N` (centres undefined) + CCN1C(C(=O)NC23CCC(C(=O)O)(CC2)CC3)C(c2cccc(Cl)c2F)C2(C(=O)Nc3cc(Cl)ccc32)C12CCCCC2, the IC50 by setting is: under setting [1], 5960 nM; under setting [2], 5860 nM; under setting [3], 6180 nM; under setting [4], 5790 nM; under setting [5], 6000 nM. Further, the viability, T/C under setting [6] is 107%; the viability, T/C under setting [7] was 105%; the viability, T/C under setting [8] was 104%; the viability, T/C under setting [9] was 110%; the viability, T/C under setting [10] was 122%; the viability, T/C under setting [11] is 1.23%. Further, the viability, T/C was 99.9% under setting [12]; 107% under setting [13]; 112% under setting [14]; 108% under setting [15]; 110% under setting [16]; 0.23% under setting [17]. Further, the viability, T/C under setting [18] is 117%; the viability, T/C under setting [19] is 105%; the viability, T/C under setting [20] was 112%; the viability, T/C under setting [21] is 120%; the viability, T/C under setting [22] was 141%; the viability, T/C under setting [23] was 0.58%. Further, the viability, T/C reads like this: under setting [24], 118%; under setting [25], 120%; under setting [26], 108%; under setting [27], 111%; under setting [28], 104%; under setting [29], 0.88%. For the same molecule, the viability, T/C was 108% under setting [30]; 103% under setting [31]; 107% under setting [32]; 113% under setting [33]; 128% under setting [34]; 0.37% under setting [35].

As for `O=C(c1cc(Cc2n[nH]c(=O)c3ccccc23)ccc1F)N1CCN(C(=O)C2CC2)CC1` + CCN1C(C(=O)NC23CCC(C(=O)O)(CC2)CC3)C(c2cccc(Cl)c2F)C2(C(=O)Nc3cc(Cl)ccc32)C12CCCCC2, the IC50 reads like this: under setting [1], over 10000 nM; under setting [2], over 10000 nM; under setting [3], over 10000 nM; under setting [4], over 10000 nM; under setting [5], over 10000 nM. The viability, T/C by setting is: under setting [6], 123%; under setting [7], 101%; under setting [8], 102%; under setting [9], 105%; under setting [10], 94.5%; under setting [11], 103%. For the same molecule, the viability, T/C runs as follows: under setting [12], 113%; under setting [13], 92.5%; under setting [14], 115%; under setting [15], 97.5%; under setting [16], 110%; under setting [17], 113%. In addition, the viability, T/C reads like this: under setting [18], 102%; under setting [19], 116%; under setting [20], 117%; under setting [21], 95.1%; under setting [22], 114%; under setting [23], 107%. Moreover, the viability, T/C is 110% under setting [24]; 103% under setting [25]; 105% under setting [26]; 102% under setting [27]; 103% under setting [28]; 108% under setting [29]. Moreover, the viability, T/C reads like this: under setting [30], 108%; under setting [31], 121%; under setting [32], 101%; under setting [33], 94.9%; under setting [34], 113%; under setting [35], 106%.

`CNC(C)C(=O)NC1CN(S(=O)(=O)c2cccc(S(=O)(=O)N3CCC4CCC(C(=O)NC(c5ccccc5)c5ccccc5)N4C(=O)C(NC(=O)C(C)NC)C3)c2)CCC2CCC(C(=O)NC(c3ccccc3)c3ccccc3)N2C1=O` (centres undefined): the viability, T/C is, setting by setting: (compound 0.00316 µM) 102% and 97.8%; (compound 0.1 µM) 95.1% [middle of 15 runs]. In addition, the IC50 by setting is: (compound alone, run of 10/03/2022) over 1000 nM; (curve of compound) over 1000 nM.

`NC(=O)C(=Cn1cnc(-c2cc(C(F)(F)F)cc(C(F)(F)F)c2)n1)c1cncnc1`: the viability, T/C is, setting by setting: (compound 0.000949 µM) 83.2% and 95.6% and 98.7%; (compound 0.003 µM) 90.3% and 107% and 115%; (compound 0.00949 µM) 73.5% and 95.6% and 128%; (compound 0.03 µM) 44.2% and 56.6% and 124%; (compound 0.0949 µM) 7.59% and 10.6% and 19.6%; (compound 0.3 µM) 2.48% and 3.46% and 4.69%. For the same molecule, for the setting “curve of compound”, the half-inhibitory concentration (IC50) is 23.4 nM and 35.4 nM and 66.1 nM.

In the case of `COc1c(OCCCN2CCOCC2)ccc2c3n(c(=NC(=O)c4cnc(N)nc4)nc12)CCN3` + Cc1c(S(C)(=O)=O)c(-c2cc(F)cc(N3CCN(c4ccc(NS(=O)(=O)c5ccc(NC(CCN6CCC(C(=O)OCCCP(=O)(O)O)CC6)CSc6ccccc6)c(S(=O)(=O)C(F)(F)F)c5)cc4)CC3)c2)c(-c2ccc(Cl)cc2)n1C(C)C, the IC50 stood at 21.8 nM (curve of first compound, second compound 0.1 µM); 13.8 nM (curve of first compound, second compound 0.316 µM); 9.37 nM (curve of first compound, second compound 1 µM); 4.99 nM (curve of first compound, second compound 3.16 µM); 4.6 nM (curve of first compound, second compound 10 µM). For the same molecule, the viability, T/C is 148% (second compound 0.1 µM, first compound 0.00316 µM); 91.5% (second compound 0.1 µM, first compound 0.01 µM); 30.1% (second compound 0.1 µM, first compound 0.0316 µM); 7.28% (second compound 0.1 µM, first compound 0.1 µM); 1.11% (second compound 0.1 µM, first compound 0.316 µM); 0.49% (second compound 0.1 µM, first compound 1 µM). Besides, the viability, T/C (second compound 0.316 µM, first compound 0.00316 µM) was 129%; the viability, T/C (second compound 0.316 µM, first compound 0.01 µM) was 62.6%; the viability, T/C (second compound 0.316 µM, first compound 0.0316 µM) is 17%; the viability, T/C (second compound 0.316 µM, first compound 0.1 µM) is 5.34%; the viability, T/C (second compound 0.316 µM, first compound 0.316 µM) was 0.77%; the viability, T/C (second compound 0.316 µM, first compound 1 µM) is 0.4%. Also, the viability, T/C was 102% (second compound 1 µM, first compound 0.00316 µM); 46.9% (second compound 1 µM, first compound 0.01 µM); 12.7% (second compound 1 µM, first compound 0.0316 µM); 3.92% (second compound 1 µM, first compound 0.1 µM); 0.8% (second compound 1 µM, first compound 0.316 µM); 0.9% (second compound 1 µM, first compound 1 µM). Also, the viability, T/C (second compound 3.16 µM, first compound 0.00316 µM) is 64.2%; the viability, T/C (second compound 3.16 µM, first compound 0.01 µM) is 28.2%; the viability, T/C (second compound 3.16 µM, first compound 0.0316 µM) was 8.79%; the viability, T/C (second compound 3.16 µM, first compound 0.1 µM) is 1.69%; the viability, T/C (second compound 3.16 µM, first compound 0.316 µM) was 0.26%; the viability, T/C (second compound 3.16 µM, first compound 1 µM) was 0.49%. In addition, the viability, T/C (second compound 10 µM, first compound 0.00316 µM) was 63.7%; the viability, T/C (second compound 10 µM, first compound 0.01 µM) was 21.6%; the viability, T/C (second compound 10 µM, first compound 0.0316 µM) was 9.29%; the viability, T/C (second compound 10 µM, first compound 0.1 µM) is 0.84%; the viability, T/C (second compound 10 µM, first compound 0.316 µM) was 0.24%; the viability, T/C (second compound 10 µM, first compound 1 µM) was 1.51%.

As to `Cc1c(S(C)(=O)=O)c(-c2cc(F)cc(N3CCN(c4ccc(NS(=O)(=O)c5ccc(NC(CCN6CCC(C(=O)OCCCP(=O)(O)O)CC6)CSc6ccccc6)c(S(=O)(=O)C(F)(F)F)c5)cc4)CC3)c2)c(-c2ccc(Cl)cc2)n1C(C)C` (centres undefined), the viability, T/C is 98.9% [middle of 14 runs] (compound 0.1 µM) and 175% [middle of 14 runs] (compound 10 µM). Also, the IC50 (compound alone, run of 09/27/2022) was over 10000 nM.
